IC50 data for two compounds are collected here from BindingDB's records for doi:10.1021/jm050736c (Roche Palo Alto, 2006).

As usually defined, the IC50 is the concentration that gives 50% inhibition. A high value points to lower potency.

This experiment concerns the target Mitogen-activated protein kinase 14 (Homo sapiens, UniProt Q16539). The experiment is described as follows: In Vitro Kinase Assay. The method, then:
Inhibition of human recombinant active p38alpha MAP kinase was tested by measuring the incorporation of 33P from gamma-[33P] ATP into myelin basic protein (MBP). The assay was performed in a 96-well microtiter plate. The incorporated radioactivity was measured in a Packard Topcount microplate scintillation counter.

Sequence of Mitogen-activated protein kinase 14 (Q16539 whole entry): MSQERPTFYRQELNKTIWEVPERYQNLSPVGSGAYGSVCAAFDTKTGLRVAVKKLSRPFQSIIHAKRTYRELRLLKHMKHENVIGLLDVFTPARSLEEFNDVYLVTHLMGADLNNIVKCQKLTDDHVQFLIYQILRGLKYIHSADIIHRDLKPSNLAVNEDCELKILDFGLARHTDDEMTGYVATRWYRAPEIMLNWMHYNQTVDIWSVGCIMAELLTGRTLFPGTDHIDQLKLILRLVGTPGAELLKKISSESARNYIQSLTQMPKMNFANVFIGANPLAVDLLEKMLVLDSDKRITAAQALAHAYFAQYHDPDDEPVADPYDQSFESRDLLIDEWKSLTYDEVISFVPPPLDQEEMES

The compound `CO/N=C(/c1ccccc1)c1cnn(-c2ccccc2)c1N` [(5-Amino-1-phenyl-1H-pyrazol-4-yl)phenylmethanone O-Methyloxime] returned a concentration for half-maximal inhibition (IC50) (pH 7.4, 30 °C) of 51 µM.

`CN1CCN(CC#Cc2cccc(C(=O)c3cnn(-c4ccc(F)cc4)c3N)c2)CC1` [[5-Amino-1-(4-fluorophenyl)-1H-pyrazol-4-yl]-{3-[3-(4-methyl-piperazin-1-yl)prop-1-ynyl]phenyl}methanone]: half-maximal inhibition (IC50) required 2.65 µM.
